In PubChem BioAssay AID1963836 (Molecular Pharmacology Branch, DTP, NCI, 2024):
pIC50: −log10 of the molar value.

System: 857933-349-R-J2-PDC complex spheroid viability
Assay: Anticancer human tumor 857933-349-R-J2-PDC patient-derived colon adenocarcinoma cell line growth inhibition [POLQ]
Details: for pIC50: curve of first compound; for viability, T/C: stronger effect = lower value; active means viability on the fitted dose curve at most 10% of control; inactive means the rest
Method: Multicellular complex tumor spheroid response to Polymerase (POL) inhibitors (novobiocin, ART-558, RP6685) in combination with a variety of drugs and investigational agents in selected tumor cell lines
The POL inhibitors (novobiocin, ART-558, and RP6685) were evaluated both individually and in combination with standard of care and investigational anticancer small molecules within a complex spheroid model of solid tumors. . Complex spheroids include a stromal component modeled by human endothelial cells (HUVEC) and fibroblasts modeled by human mesenchymal stem cells (MSCs). The concentration ranges selected for each drug and investigational agent were based upon clinically achievable concentrations if the clinical Cmax of the agent was known.
Compounds. The drugs and investigational agents: novobiocin (NSC847541), ART-558 (NSC835418), RP-6685 (NSC848927), peposertib (NSC802822), ceralasertib (NSC780249), elimusertib (NSC800525), camonsertib (NSC841442), AZD-1390 (NSC803789), olaparib (NSC753686), talazoparib (NSC767125), rucaparib (NSC756644), sotorasib (NSC818433), MRTX-1133 (NSC836407), SN-38 (NSC673596), topotecan (NSC609699), epotoside (NSC141540), doxorubicin (NSC123127), gemcitabine (NSC613327), 5-fluorouracil (NSC19893), paclitaxel (NSC125973), vemurafenib (NSC761431), MSA-2 (NSC828583), SN-011 (NSC837082), adavosertib (NSC754352), prexasertib (NSC758257), carboplatin (NSC241240) and oxaliplatin (NSC266046), were obtained from the National Cancer Institute (NCI) Developmental Therapeutics Program Chemical Repository (21). The FDA-approved anticancer drug set is available from the Developmental Therapeutics Program at https://dtp.cancer.gov/organization/dscb/obtaining/. […] The stock solutions were prepared in dimethyl sulfoxide (DMSO, Sigma-Aldrich, St. Louis, MO, cat. D2650), except for the platinum compounds which were prepared in saline (Quality Biological, Gaithersburg, MD, cat. 114-055-101), at 800-fold the tested concentration and stored at -70 degrees C prior to their use. All drugs and investigational agents were tested over a range starting from a high concentration at or near the clinical Cmax and decreasing in half-log increments. If the clinical Cmax for an agent had not been determined, the highest concentration tested was 10 microM, except for SN-38, which was tested at a high concentration of 1 microM.
Cell Culture. All cells were maintained in an incubator at 37 degrees C and 5% CO2 with 95% humidity. The PDC lines were cultured according to standard operating procedures established by the NCI PDMR (https://pdmr.cancer.gov). Table 3 of the manuscript, lists the cell lines along with the number of the three cell types plated to form the mct-spheroids and media for tumor cell growth. After thawing, all PDC lines, except 997537-175-T-J1-PDC and 415267-285-R-J2-PDC, were cultured in Matrigel-coated flasks prepared with a working solution of 1X Ham's F-12 nutrient mix, without supplementation (Thermo Fisher Scientific, cat. 11765054), 100 U/mL penicillin-streptomycin (Thermo Fisher Scientific, cat. 15140122), and 2.5% Matrigel (Corning Inc., Corning, NY, cat. 354248) for the first three passages. The two PDC lines 997537-175-T-J1-PDC and 415267-285-R-J2-PDC were cultured on uncoated flasks. The 857933-349-R-J2-PDC line was cultured in 6C/Colon 1B media containing advanced DMEM/F-12 (Thermo Fisher Scientific, cat. 12634028), 10 mM HEPES (Thermo Fisher Scientific, cat. 15630080), 1X GlutaMAX supplement (Thermo Fisher Scientific, cat. 35050061), 0.1 mg/mL primocin (InvivoGen, San Diego, CA, cat. ant-pm-2), 10% defined fetal bovine serum, heat inactivated (HyClone Laboratories Inc., Logan, UT, cat. SH30070.03HI), 50% L-WRN conditioned media (ATCC, cat. CRL-3276), 1.25 mM N-Acetyl-L-cysteine (Sigma-Aldrich, cat. A9165), 10 mM nicotinamide (Sigma-Aldrich, cat. N0636), 1X B-27 supplement (Thermo Fisher Scientific, cat. 17504044), 1X N-2 supplement (Thermo Fisher Scientific, cat. […]
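Further: spheroids exposed to compounds for seven days before readout.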

CCc1cc2c(N3CCc4c(cc(Cn5ccnc5)cc4-c4cn(C)nc4C(F)(F)F)C3=O)ccnc2c(OC)n1 + Nc1ccc(C#CCN(C(=O)Cc2ncc(C(F)(F)F)cc2C(F)(F)F)c2ccc(F)cc2)nn1
inactive: viability, T/C (second compound 0.0316 µM, first compound 0.0316 µM) 93.9% | viability, T/C (second compound 0.0316 µM, first compound 0.1 µM) 96.4% | viability, T/C (second compound 0.0316 µM, first compound 0.316 µM) 76.3% | viability, T/C (second compound 0.0316 µM, first compound 1 µM) 87.7% | viability, T/C (second compound 0.0316 µM, first compound 3.16 µM) 59.2% | viability, T/C (second compound 0.0316 µM, first compound 10 µM) 59.2% | viability, T/C (second compound 0.1 µM, first compound 0.0316 µM) 97.3% | viability, T/C (second compound 0.1 µM, first compound 0.1 µM) 101% | viability, T/C (second compound 0.1 µM, first compound 0.316 µM) 94.5% | viability, T/C (second compound 0.1 µM, first compound 1 µM) 93% | viability, T/C (second compound 0.1 µM, first compound 3.16 µM) 70% | viability, T/C (second compound 0.1 µM, first compound 10 µM) 58.5% | viability, T/C (second compound 0.316 µM, first compound 0.0316 µM) 82% | viability, T/C (second compound 0.316 µM, first compound 0.1 µM) 86% | viability, T/C (second compound 0.316 µM, first compound 0.316 µM) 94.5% | viability, T/C (second compound 0.316 µM, first compound 1 µM) 84.1% | viability, T/C (second compound 0.316 µM, first compound 3.16 µM) 77% | viability, T/C (second compound 0.316 µM, first compound 10 µM) 55.1% | viability, T/C (second compound 1 µM, first compound 0.0316 µM) 97.6% | viability, T/C (second compound 1 µM, first compound 0.1 µM) 90.2% | viability, T/C (second compound 1 µM, first compound 0.316 µM) 95.1% | viability, T/C (second compound 1 µM, first compound 1 µM) 77.2% | viability, T/C (second compound 1 µM, first compound 3.16 µM) 71.1% | viability, T/C (second compound 1 µM, first compound 10 µM) 65.3% | viability, T/C (second compound 3.16 µM, first compound 0.0316 µM) 97.6% | viability, T/C (second compound 3.16 µM, first compound 0.1 µM) 89.9% | viability, T/C (second compound 3.16 µM, first compound 0.316 µM) 104% | viability, T/C (second compound 3.16 µM, first compound 1 µM) 83% | viability, T/C (second compound 3.16 µM, first compound 3.16 µM) 68.3% | viability, T/C (second compound 3.16 µM, first compound 10 µM) 62.8% | viability, T/C (second compound 10 µM, first compound 0.0316 µM) 83.5% | viability, T/C (second compound 10 µM, first compound 0.1 µM) 77.3% | viability, T/C (second compound 10 µM, first compound 0.316 µM) 79.6% | viability, T/C (second compound 10 µM, first compound 1 µM) 75.7% | viability, T/C (second compound 10 µM, first compound 3.16 µM) 54.4% | viability, T/C (second compound 10 µM, first compound 10 µM) 46.6%
< 5.00: pIC50 (second compound 0.0316 µM) | pIC50 (second compound 0.1 µM) | pIC50 (second compound 0.316 µM) | pIC50 (second compound 1 µM) | pIC50 (second compound 3.16 µM)
5.22: pIC50 (second compound 10 µM)
